The values that follow come from patent US20170369444A1, “INHIBITORS OF HISTONE DEMETHYLASES” (Gilead Sciences, Inc., priority 2014, published 2017).

In test [1] the target is T1, KDM6A (UTX) (Homo sapiens, UniProt O15550).
T1 construct: 919-1401; host or cells: E. coli
Description: Histone lysine demethylase AlphaLISA assay, KDM6A. The format is biochemical. As to conditions: in vitro enzyme, read-out: KDM6A IC50 (HDME Inhibition).

In test [2] the target is T2, KDM4C (JMJD2C) (Homo sapiens, UniProt Q9H3R0).
T2 construct: 1-349; host or cells: E. coli
T2 sequence (Q9H3R0 1-349): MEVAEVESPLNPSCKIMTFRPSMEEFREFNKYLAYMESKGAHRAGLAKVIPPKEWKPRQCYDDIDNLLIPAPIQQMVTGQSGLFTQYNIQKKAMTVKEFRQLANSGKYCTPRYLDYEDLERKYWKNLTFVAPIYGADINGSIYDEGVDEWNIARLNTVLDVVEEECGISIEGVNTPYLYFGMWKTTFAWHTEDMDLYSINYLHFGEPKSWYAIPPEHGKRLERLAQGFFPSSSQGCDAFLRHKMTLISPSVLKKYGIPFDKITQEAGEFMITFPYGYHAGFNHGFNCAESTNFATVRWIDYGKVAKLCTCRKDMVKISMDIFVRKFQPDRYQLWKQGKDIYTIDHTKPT
Description: Histone lysine demethylase AlphaLISA assay, KDM4C. Type of test: biochemical. As to conditions: in vitro enzyme, read-out: KDM4C IC50 (HDME Inhibition). A general note: Alpha assays give light when donor and acceptor beads are brought close together.

In test [3] the target is T3, KDM2B (FBXL10) (Homo sapiens, UniProt Q8NHM5).
T3 construct: 1-650; purchased BPS Bioscience, US; host or cells: Bac (baculovirus/insect cells)
T3 sequence (Q8NHM5 1-650): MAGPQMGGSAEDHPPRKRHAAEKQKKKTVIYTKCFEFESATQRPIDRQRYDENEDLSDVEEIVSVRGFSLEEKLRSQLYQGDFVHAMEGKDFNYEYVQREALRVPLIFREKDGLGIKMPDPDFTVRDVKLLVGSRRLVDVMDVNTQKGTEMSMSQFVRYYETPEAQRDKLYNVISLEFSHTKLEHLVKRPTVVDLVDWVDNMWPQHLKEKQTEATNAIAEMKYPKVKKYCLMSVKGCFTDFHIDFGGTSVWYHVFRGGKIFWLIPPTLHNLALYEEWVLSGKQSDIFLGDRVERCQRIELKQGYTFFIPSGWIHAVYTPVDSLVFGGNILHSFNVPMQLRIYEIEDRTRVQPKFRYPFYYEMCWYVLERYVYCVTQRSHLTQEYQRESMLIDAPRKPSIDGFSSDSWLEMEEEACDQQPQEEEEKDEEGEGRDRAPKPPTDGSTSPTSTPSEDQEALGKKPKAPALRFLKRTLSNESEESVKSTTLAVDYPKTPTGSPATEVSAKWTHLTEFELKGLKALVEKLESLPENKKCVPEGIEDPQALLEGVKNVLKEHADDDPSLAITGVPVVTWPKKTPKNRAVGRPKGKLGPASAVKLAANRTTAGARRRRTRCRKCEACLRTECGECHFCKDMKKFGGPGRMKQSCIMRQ
Description: Histone lysine demethylase AlphaLISA assay, KDM2B. Type of test: biochemical. As to conditions: in vitro enzyme, read-out: KDM2B IC50 (HDME Inhibition).

For test [4], the target named is PHF8 (KDM7) (Homo sapiens, UniProt Q9UPP1). Nature of the test: Histone lysine demethylase AlphaLISA assay, PHF8. Type of test: biochemical. As to conditions: in vitro enzyme, read-out: PHF8 IC50 (HDME Inhibition).
For test [5], the target named is T4, KDM5B (PLU-1) (Homo sapiens, UniProt Q9UGL1).
T4 construct: 1-809; host or cells: E. coli
T4 sequence (Q9UGL1 1-809): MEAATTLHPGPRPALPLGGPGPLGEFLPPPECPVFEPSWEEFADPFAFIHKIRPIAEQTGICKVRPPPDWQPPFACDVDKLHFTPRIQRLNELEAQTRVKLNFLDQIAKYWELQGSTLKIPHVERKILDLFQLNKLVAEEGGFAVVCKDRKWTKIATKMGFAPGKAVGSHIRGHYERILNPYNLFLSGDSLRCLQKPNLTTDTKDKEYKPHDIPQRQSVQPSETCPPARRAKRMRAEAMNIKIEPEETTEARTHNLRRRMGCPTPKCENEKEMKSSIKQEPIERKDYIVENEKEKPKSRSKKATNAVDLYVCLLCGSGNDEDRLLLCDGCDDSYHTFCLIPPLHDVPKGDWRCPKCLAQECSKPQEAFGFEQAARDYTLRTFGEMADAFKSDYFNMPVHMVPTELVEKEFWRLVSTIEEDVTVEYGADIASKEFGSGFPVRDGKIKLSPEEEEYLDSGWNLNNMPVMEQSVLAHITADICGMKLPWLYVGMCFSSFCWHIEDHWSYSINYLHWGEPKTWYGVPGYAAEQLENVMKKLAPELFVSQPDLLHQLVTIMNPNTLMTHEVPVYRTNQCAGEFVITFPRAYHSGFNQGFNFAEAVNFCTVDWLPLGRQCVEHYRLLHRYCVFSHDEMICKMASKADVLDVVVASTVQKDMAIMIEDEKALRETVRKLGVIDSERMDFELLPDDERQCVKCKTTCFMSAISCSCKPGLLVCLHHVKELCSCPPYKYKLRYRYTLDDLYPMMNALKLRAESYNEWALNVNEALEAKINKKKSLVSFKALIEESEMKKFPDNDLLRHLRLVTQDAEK
Nature of the test: Histone lysine demethylase AlphaLISA assay, KDM5B. The format is biochemical. As to conditions: in vitro enzyme, read-out: KDM5B IC50 (HDME Inhibition).

The test system of test [6] is H3K4me3 mark in U2OS cells. Nature of the test: Histone lysine demethylase immunofluorescence assay, non-transfected U2OS cells. The format is cell-based. As to conditions: Homo sapiens, 20 hours incubation, read-out: IC50 value, staining of the H3K4me3 mark in cells. The protocol:
Generally, the cells are incubated with compounds, washed and incubated with a methylation specific antibody before imaging. IC50 values are determined by measurement of the H3K4me3 staining.
Histone Lysine Demethylase Immunofluorescence Assays for IC50 value Determination, non-transfected cells
U2OS cells are harvested and seeded into multi well plates into media containing compound. The media is DMEM containing 5% FBS and pen/strep. 20 hours after incubation of cells with compounds, the cells are washed once in PBS, harvested by fixation with formaldehyde 4% aqueous solution, and washed in PBS. Subsequently, the cells are permeabilized in PBS with 0.2% Triton X-100. Blocking is performed in PBS with 0.2% Triton X-100 and 5% FBS. The cells are incubated with αH3K4me3 primary antibody (Cell Signaling, #9751S) in blocking solution over night at 4° C. After incubation with primary antibody, the cells are washed with PBS, incubated with secondary antibody (Alexa fluor 594 goat anti rabbit IgG, Invitrogen, A11012) and Hoechst, (Sigma, 33342) in blocking solution, and washed again with PBS. Finally, PBS is added and high throughput imaging and analysis are performed by an IN Cell Analyzer 1000 (GE Healthcare). IC50 values are determined based on an average measure of the staining of the H3K4me3 mark in cells.

T1 sequence (O15550 919-1401): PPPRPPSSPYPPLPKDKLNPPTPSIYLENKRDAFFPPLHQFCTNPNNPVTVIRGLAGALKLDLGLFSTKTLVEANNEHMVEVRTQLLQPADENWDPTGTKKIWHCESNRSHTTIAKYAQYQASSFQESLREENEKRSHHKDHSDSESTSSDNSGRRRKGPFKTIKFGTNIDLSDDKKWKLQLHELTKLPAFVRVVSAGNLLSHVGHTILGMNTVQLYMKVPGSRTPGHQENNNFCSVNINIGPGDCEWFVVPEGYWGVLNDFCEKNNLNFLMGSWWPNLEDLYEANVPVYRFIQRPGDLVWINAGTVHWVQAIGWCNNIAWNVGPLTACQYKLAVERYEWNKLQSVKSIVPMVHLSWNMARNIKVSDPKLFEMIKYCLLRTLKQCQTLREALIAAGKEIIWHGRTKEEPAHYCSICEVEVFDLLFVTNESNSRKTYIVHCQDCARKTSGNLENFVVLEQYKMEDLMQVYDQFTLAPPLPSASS
PHF8 (KDM7), sequence (Q9UPP1 whole entry): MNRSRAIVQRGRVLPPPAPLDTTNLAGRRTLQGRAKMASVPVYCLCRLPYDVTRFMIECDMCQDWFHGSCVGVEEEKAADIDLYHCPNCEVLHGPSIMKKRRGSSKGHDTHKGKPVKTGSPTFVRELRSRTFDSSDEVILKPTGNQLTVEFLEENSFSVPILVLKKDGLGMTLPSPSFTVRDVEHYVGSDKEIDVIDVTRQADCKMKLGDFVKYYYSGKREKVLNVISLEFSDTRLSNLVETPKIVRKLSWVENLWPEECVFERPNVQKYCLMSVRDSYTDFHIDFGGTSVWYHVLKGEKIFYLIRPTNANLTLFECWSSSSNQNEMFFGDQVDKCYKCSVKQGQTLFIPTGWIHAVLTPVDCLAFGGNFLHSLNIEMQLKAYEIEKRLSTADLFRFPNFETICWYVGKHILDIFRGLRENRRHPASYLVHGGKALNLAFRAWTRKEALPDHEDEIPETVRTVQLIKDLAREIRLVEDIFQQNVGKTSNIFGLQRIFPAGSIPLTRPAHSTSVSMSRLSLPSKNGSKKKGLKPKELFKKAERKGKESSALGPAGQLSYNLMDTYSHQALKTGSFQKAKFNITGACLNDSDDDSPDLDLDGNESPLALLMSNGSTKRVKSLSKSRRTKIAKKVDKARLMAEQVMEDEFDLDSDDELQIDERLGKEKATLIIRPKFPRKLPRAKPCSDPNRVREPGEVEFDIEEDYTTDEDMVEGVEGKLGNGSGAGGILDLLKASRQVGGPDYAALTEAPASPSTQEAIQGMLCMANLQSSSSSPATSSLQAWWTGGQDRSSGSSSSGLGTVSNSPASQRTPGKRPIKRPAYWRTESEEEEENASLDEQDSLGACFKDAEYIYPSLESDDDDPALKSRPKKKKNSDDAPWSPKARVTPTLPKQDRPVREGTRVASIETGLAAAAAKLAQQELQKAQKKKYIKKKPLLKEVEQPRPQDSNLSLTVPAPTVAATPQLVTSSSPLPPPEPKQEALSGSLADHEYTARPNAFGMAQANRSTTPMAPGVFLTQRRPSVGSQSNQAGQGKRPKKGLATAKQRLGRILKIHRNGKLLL

For orientation: IC50 means the concentration that gives 50% inhibition. As to `Cc1cn2c(n1)CCN(Cc1cc(C(=O)O)ccn1)CC2` [Compound 69, 2-({2-methyl-5H,6H,7H,8H,9H-imidazo[1,2-d][1,4]diazepin-7-yl}methyl)pyridine-4-carboxylic acid], the IC50 in test [1] is greater than 2500 nM; in test [2], 250 to 2500 nM; in test [3], greater than 2500 nM; in test [4] it was 250 to 2500 nM; in test [5], less than 250 nM.

As to `CC(C)(C)OC(=O)NCCCC[C@@H](CO)NCc1cc(C(=O)O)ccn1` [Compound 22, 2-({[(2S)-6-{[(tert-butoxy)carbonyl]amino}-1-hydroxyhexan-2-yl]amino}methyl)pyri-dine-4-carboxylic acid], the IC50 was greater than 2500 nM in test [1], 250 to 2500 nM in test [2], less than 250 nM in test [3] and less than 250 nM in test [5].

As for `C[C@H](c1ccccc1)N1CCC[C@@H](CNCc2cc(C(=O)O)ccn2)C1=O` [Compound 14, 2-[({[(3S)-2-oxo-1-[(1R)-1-phenylethyl]piperidin-3-yl]methyl}amino)methyl]pyridine-4-carboxylic acid], the half-inhibitory concentration (IC50) in test [1] is greater than 2500 nM; in test [2], 250 to 2500 nM; in test [3], 250 to 2500 nM; in test [4] it was 250 to 2500 nM; in test [5], less than 250 nM.

For the compound `C=CCN(CC=C)C(=O)[C@@H](CCS(C)(=O)=O)NCc1cc(C(=O)O)ccn1` [Compound 37, 2-({[(1R)-1-[bis(prop-2-en-1-yl)carbamoyl]-3-methanesulfonylpropyl]amino}methyl)pyridine-4-carboxylic acid], the IC50 was greater than 2500 nM in test [1]; greater than 2500 nM in test [2]; less than 250 nM in test [3]; less than 250 nM in test [4]; 250 to 2500 nM in test [5].

For `C[C@H](c1ccccc1)N1CCC[C@H](CNCc2cc(C(=O)O)ccn2)C1=O` [Compound 2, 2-[({[(3R)-2-oxo-1-[(1R)-1-phenylethyl]piperidin-3-yl]methyl}amino)methyl]pyridine-4-carboxylic acid], the half-maximal inhibitory concentration (IC50) in test [1] was greater than 2500 nM; in test [2] it was less than 250 nM; in test [3], less than 250 nM; in test [4] it was 250 to 2500 nM; in test [5] it was less than 250 nM.

`NC(=O)CCN(CC(=O)N1CCCCC1)Cc1cc(C(=O)O)ccn1` [Compound 34, 2-{[(2-carbamoylethyl)[2-oxo-2-(piperidin-1-yl)ethyl]amino]methyl} pyridine-4-carboxylic acid]: the 50% inhibitory concentration (IC50) is greater than 2500 nM in test [1]; 250 to 2500 nM in test [2]; 250 to 2500 nM in test [3]; 250 to 2500 nM in test [4]; less than 250 nM in test [5].

On to `O=C(O)c1ccnc(CNC2CCc3cc(Br)cnc32)c1` (stereo not shown) [Compound 103, 2-[({3-bromo-5H,6H,7H-cyclopenta[b]pyridin-7-yl}amino)methyl]pyri-dine-4-carboxylic acid], for which the IC50 in test [1] is greater than 2500 nM; in test [2], 250 to 2500 nM; in test [3], less than 250 nM; in test [4], less than 250 nM.

For the compound `C[C@H](c1ccccc1)N1CC[C@@H](CNCc2cc(C(=O)O)ccn2)C1=O` [Compound 17, 2-[({[(3S)-2-oxo-1-[(1R)-1-phenylethyl]pyrrolidin-3-yl]methyl}amino)methyl]pyridine-4-carboxylic acid], the 50% inhibitory concentration (IC50) in test [1] was greater than 2500 nM; in test [2] it was 250 to 2500 nM; in test [3], less than 250 nM; in test [4] it was 250 to 2500 nM; in test [5], less than 250 nM.

Consider `O=C(O)c1cc(CNCC(=O)N2CCCCC2)ncn1` [Compound 35, 6-({[2-oxo-2-(piperidin-1-yl)ethyl]amino}methyl) pyrimidine-4-carboxylic acid], for which the half-inhibitory concentration (IC50) in test [1] is greater than 2500 nM; in test [2], 250 to 2500 nM; in test [3], 250 to 2500 nM; in test [4] it was 250 to 2500 nM.

As for `COc1ccc([C@@H](C)N2CCC[C@H](CNCc3cc(C(=O)O)ccn3)C2=O)cc1` [Compound 81, 2-[({[(3R)-1-[(1R)-1-(4-methoxyphenyl)ethyl]-2-oxopiperidin-3-yl]methyl}amino)methyl]pyridine-4-carboxylic acid], the IC50 in test [1] is greater than 2500 nM; in test [2], 250 to 2500 nM; in test [3] it was less than 250 nM; in test [4] it was 250 to 2500 nM; in test [5] it was less than 250 nM.

`CCN1CCC(CNCc2cc(C(=O)O)ccn2)C1=O` (stereo not shown) [Compound 39, 2-({[(1-ethyl-2-oxopyrrolidin-3-yl)methyl]amino}methyl)pyridine-4-carboxylic acid]: the IC50 is greater than 2500 nM in test [1]; 250 to 2500 nM in test [2]; less than 250 nM in test [3]; 250 to 2500 nM in test [4]; less than 250 nM in test [5].

As to `COc1ccc([C@@H](C)N2CCC[C@@H](CNCc3cc(C(=O)O)ccn3)C2=O)cc1` [Compound 80, 2-[({[(3S)-1-[(1R)-1-(4-methoxyphenyl)ethyl]-2-oxopiperidin-3-yl]methyl}amino)methyl]pyridine-4-carboxylic acid], the IC50 in test [1] was greater than 2500 nM; in test [2] it was 250 to 2500 nM; in test [3], less than 250 nM; in test [4], 250 to 2500 nM; in test [5], less than 250 nM.

Consider `O=C(N1CC2(CC2)COC1c1ccnc(CN2CCCn3ccnc3C2)c1)C(F)(F)F` (stereo not shown) [Compound 108, 2,2,2-trifluoro-1-[6-(2-{5H,6H,7H,8H,9H-imidazo[1,2-a][1,4]diazepin-8-ylmethyl}pyridin-4-yl)-5-oxa-7-azaspiro[2.5]octan-7-yl]ethan-1-one], for which the IC50 in test [2] was 250 to 2500 nM; in test [3], 250 to 2500 nM; in test [6], less than 2500 nM; in test [5] it was less than 250 nM.
